Like-named read-outs stand apart in the source and are kept apart here.
Key:
[1] = target: T1, Gal4 DNA binding domain fused to the LBD of LXRα in HEK293 cells (Homo sapiens (Human), UniProt Q13133); experiment: LXR luciferase transcriptional reporter gene assay, agonist mode, LXRα; type: cell-based; conditions: for EC50: read-out: Cell LXRα EC50
[2] = target: T1, Gal4 DNA binding domain fused to the LBD of LXRα in HEK293 cells; experiment: LXR luciferase transcriptional reporter gene assay, antagonist mode (200 nM T0901317), LXRα; type: cell-based; conditions: for IC50: read-out: Cell LXRα IC50
LXR α LBD protein [3] = target: T2, LXR α LBD protein (Homo sapiens (Human), UniProt Q13133); experiment: Human LXRα coactivator recruitment FRET assay, agonist mode; type: biochemical
Outline: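 LXRα- or LXRβ-LBD at 10 nM (2×) mixed with compound in DMSO, then fluorescein-SRC2-3 peptide 200 nM and Tb-anti-GST antibody 20 nM (4×) added; 2 h at rt. Time-resolved FRET read, 100 µs delay, 200 µs window; EC50 from four-parameter fit of percent control.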

LXR α LBD protein [4] = target: T2, LXR α LBD protein; experiment: LXR α radioligand binding assay (SPA, competition with [3H]TO901317); conditions: read-out: LXRα Binding Ki
LXR β LBD protein [5] = target: T3, LXR β LBD protein (Homo sapiens (Human), UniProt P55055); experiment: biochemical; type: binding; conditions: read-out: LXRβ Binding Ki
Target sequence in this assay (P55055 222-460 limits assumed): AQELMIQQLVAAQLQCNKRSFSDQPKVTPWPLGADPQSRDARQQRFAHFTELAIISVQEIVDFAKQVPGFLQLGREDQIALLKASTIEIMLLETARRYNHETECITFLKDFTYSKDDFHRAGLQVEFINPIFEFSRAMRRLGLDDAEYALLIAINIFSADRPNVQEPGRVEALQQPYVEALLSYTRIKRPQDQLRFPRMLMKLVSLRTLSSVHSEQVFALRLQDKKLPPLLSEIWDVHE

[6] = target: Gal4 DNA binding domain fused to the LBD of LXRβ in HEK293 cells (Homo sapiens (Human), UniProt P55055); experiment: cell-based
LXR β LBD protein [7] = target: T3, LXR β LBD protein; experiment: biochemical; type: biochemical; conditions: for EC50: read-out: FRET LXRβ EC50
Experimental: Two μL of the DMSO solutions were transferred to the plate and 38 μL of 10 nM LXRα-LBD or LXRβ-LBD (2×) were added immediately to the wells. The plate was shaken for 5 min at rt on an orbital micro shaker (DPC MicroMix® 5), after which 40 μL of 200 nM fluorescein-SRC2-3 peptide and 20 nM Terbium-anti-GST-antibody (Cat# PV3550, Life Technologies, Grand Island, N.Y.) solution (4×) were added to all. The plate was sealed and shaken for 2 min at rt, and incubated at rt for 2 h without agitation. […] The delay and window times were set at 100 and 200 microseconds, respectively. […] The percent control vs. compound concentration data were fit into a four-parameter model, and EC50 values were calculated from the fit as the concentrations corresponding to the inflection points on the concentration-response curves.
Target sequence in this assay (P55055 222-460): as the sequence (P55055 222-460 limits assumed) above

[8] = antagonist mode, 200 nM T0901317, HEK293 reporter gene assay
[9] = Biological Test Example 2, agonist mode
[10] = Biological Test Example 2, agonist mode, read-out: Cell LXRβ EC50
[11] = Biological Test Example 3, agonist mode

T2 sequence (Q13133 209-447): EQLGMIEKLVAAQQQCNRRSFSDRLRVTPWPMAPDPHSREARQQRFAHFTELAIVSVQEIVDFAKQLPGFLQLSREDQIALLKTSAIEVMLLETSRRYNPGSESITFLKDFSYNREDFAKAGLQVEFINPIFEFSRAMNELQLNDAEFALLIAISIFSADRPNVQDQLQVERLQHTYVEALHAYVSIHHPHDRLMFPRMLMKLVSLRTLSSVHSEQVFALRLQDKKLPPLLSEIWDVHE
T1 sequence (Q13133 209-447): as above
Chain of Gal4 DNA binding domain fused to the LBD of LXRβ in HEK293 cells (P55055 222-460 limits assumed): as the sequence (P55055 222-460 limits assumed) above

Row | SMILES | EC50 ([1]; agonist mode) | IC50 [2, 8] | Cell LXRα efficacy [1] | EC50 (LXR α LBD protein [3]; agonist mode) | FRET LXRα efficacy (LXR α LBD protein [3]; agonist mode) | Ki (LXR α LBD protein [4]) | EC50 [1] | EC50 [6] | EC50 (LXR β LBD protein [7]) | Ki (LXR β LBD protein [5]) | also measured
1 | CS(=O)(=O)c1cccc(N2CCN(C[C@@H]3CCC[C@@H](C(F)(F)F)C3)[C@@H](c3ccc(F)cc3)C2)c1 (single isomer, unassigned) [48-39] | > 20000 nM | 78 nM |  |  |  |  |  |  |  |  | Cell LXRα efficacy [2]: 78 (86) %
2 | CC(C)C[C@@H]1CN(c2cccc(S(C)(=O)=O)c2)CCN1C(=O)OC(C)(C)C [1-3, tert-butyl (R)-2-isobutyl-4-(3-(methylsulfonyl)phenyl)piperazine-1-carboxylate] | 955 nM | 2870 nM | 955 (34) % | 1680 nM | 43% |  |  |  |  |  | 
3 | CC(C)[C@@H]1CN(c2cccc(S(C)(=O)=O)c2)CCN1C(=O)OCC(C)(C)C [5-6, neopentyl (R)-2-isopropyl-4-(3-(methylsulfonyl)phenyl)piperazine-1-carboxylate] | 1420 nM | 9460 nM | 1424 (48) % | 234 nM | 52% |  |  |  |  |  | 
4 | CS(=O)(=O)c1cccc(N2CCN(C[C@H]3CC[C@@]4(CC3)CC4(F)F)[C@@H](c3ccccc3)C2)c1 (single isomer, unassigned) [48-69] |  |  | 425 (69) % |  |  | 111 nM | 425 nM |  |  |  | Ki (LXR β LBD protein [5]; Biological Test Example 1): 14 nM; Cell LXRβ efficacy [6, 9]: 43%; EC50 [6, 10]: 151 nM; IC50 [2]: > 10000 nM
5 | CS(=O)(=O)c1cc(N2CCN(C[C@H]3CC[C@H](C(F)(F)F)CC3)[C@@H](c3ccccc3)C2)ccc1C#N (single isomer, unassigned) [50-4] |  |  | 3065 (19) % |  |  | 2720 nM | 3060 nM |  |  |  | Ki (LXR β LBD protein [5]; Biological Test Example 1): 516 nM; Cell LXRβ efficacy [6, 9]: 23%; EC50 [6, 10]: 1280 nM; EC50 (LXR α LBD protein [3]; [11]): 9560 nM; FRET LXRα efficacy (LXR α LBD protein [3]; [11]): 69%; FRET LXRβ efficacy (LXR β LBD protein [7]; [11]): 82%; EC50 (LXR β LBD protein [7]; [11]): 1630 nM
6 | CS(=O)(=O)c1cccc(N2CCN(C[C@H]3CCN(CC(F)(F)F)C3)[C@@H](c3ccccc3)C2)c1 (single isomer, unassigned) [48-63] |  |  |  |  |  | > 3330 nM |  | > 20000 nM | 1550 nM |  | Ki (LXR β LBD protein [5]; Biological Test Example 1): > 2500 nM; EC50 [1, 9]: > 20000 nM; EC50 (LXR α LBD protein [3]; [11]): 11700 nM; FRET LXRα efficacy (LXR α LBD protein [3]; [11]): 14%; FRET LXRβ efficacy (LXR β LBD protein [7]; [11]): 1553 (30) %
7 | CS(=O)(=O)c1cccc(N2CCN(c3nccc(C(F)(F)F)n3)[C@H](c3ccc(F)cc3)C2)c1 [8-1, (R)-2-(2-(4-fluorophenyl)-4-(3-(methylsulfonyl)phenyl)piperazin-1-yl)-4-(trifluoromethyl)pyrimidine] | 2160 nM |  | 2160 (16) % | 665 nM | 41% | 454 nM |  | 493 nM | 62 nM | 36 nM | Cell LXRβ efficacy ([6]; agonist mode): 493 (31) %; FRET LXRβ efficacy (LXR β LBD protein [7]; agonist mode): 62 (75) %
8 | CS(=O)(=O)c1cccc(N2CCN(Cc3ccc(OC(F)(F)F)cc3)[C@@H](c3ccccc3)C2)c1 (single isomer, unassigned) [46-23] |  |  | 4367 (45) % | 7040 nM | 47% | 1040 nM | 4370 nM | 1430 nM | 710 nM | 112 nM | Cell LXRβ efficacy [6]: 1432 (29) %; FRET LXRβ efficacy (LXR β LBD protein [7]): 710 (57) %
9 | CS(=O)(=O)c1cccc(N2CCN(C[C@H]3CCC[C@H](C(F)(F)F)C3)[C@@H](c3ccc(F)cc3)C2)c1 [48-40, (S)-2-(4-fluorophenyl)-4-(3-(methylsulfonyl)phenyl)-1-(((1S,3S)-3-(trifluoromethyl)cyclohexyl)methyl)piperazine] | > 20000 nM | > 10000 nM |  |  |  | 2480 nM |  |  |  |  | 
10 | CS(=O)(=O)c1cccc(N2CCN(C[C@@H]3CCC[C@H](C(F)(F)F)C3)[C@@H](c3ccc(F)cc3)C2)c1 (single isomer, unassigned) [48-41] | 1460 nM | 421 nM | 1459 (7) % |  |  | 196 nM |  |  |  |  | Cell LXRα efficacy [2]: 421 (83) %
11 | CS(=O)(=O)c1cc(F)cc(N2CCN(Cc3ccc(C(F)(F)F)nc3)C(c3ccccc3)C2)c1 (stereo not drawn) [46-53, 4-(3-fluoro-5-(methylsulfonyl)phenyl)-2-phenyl-1-((6-(trifluoromethyl)pyridin-3-yl)methyl)piperazine] | 11100 nM |  | 11138 (23) % | 2590 nM | 46% | > 3330 nM |  | 3280 nM | 924 nM | 1520 nM | Cell LXRβ efficacy ([6]; agonist mode): 3280 (28) %
12 | CC(C)[C@@H]1CN(c2ccc(C#N)c(S(C)(=O)=O)c2)CCN1c1nccc(C(F)(F)F)n1 [7-17, (R)-4-(3-isopropyl-4-(4-(trifluoromethyl)pyrimidin-2-yl)piperazin-1-yl)-2-(methylsulfonyl)benzonitrile] | 1110 nM | 6030 nM | 1115 (69) % |  |  |  |  |  |  |  | 
13 | CC(C)c1ccc(CN2CCN(c3cccc(S(C)(=O)=O)c3)CC2c2ccccc2)cn1 (stereo not drawn) [46-42, 1-((6-isopropylpyridin-3-yl)methyl)-4-(3-(methylsulfonyl)phenyl)-2-phenylpiperazine] | > 20000 nM |  |  | 984 nM | 53% | > 3330 nM |  | 5900 nM | 1050 nM | > 2500 nM | Cell LXRβ efficacy ([6]; agonist mode): 5895 (9) %; FRET LXRβ efficacy (LXR β LBD protein [7]; agonist mode): 1048 (53) %
14 | CC(C)[C@@H]1CN(c2ccc(F)c(S(C)(=O)=O)c2)CCN1c1ncc(Cc2ccc(C(=O)O)cc2)c(C(F)(F)F)n1 [Cpd No 32-1, (R)-4-((2-(4-(4-fluoro-3-(methylsulfonyl)phenyl)-2-isopropylpiperazin-1-yl)-4-(trifluoromethyl)pyrimidin-5-yl)methyl)benzoic acid] |  |  | 4667 (6) % |  |  | 197 nM | 4670 nM |  |  |  | IC50 [2]: 544 nM
15 | CC(C)(O)c1ccc(CN2CCN(c3cccc(S(C)(=O)=O)c3)C[C@@H]2c2ccccc2)cc1 [10-12, (S)-2-(4-((4-(3-(methylsulfonyl)phenyl)-2-phenylpiperazin-1-yl)methyl)phenyl)propan-2-ol] |  |  |  | 1370 nM | 18% | > 3330 nM | > 20000 nM | > 20000 nM | 1140 nM | > 2500 nM | FRET LXRβ efficacy (LXR β LBD protein [7]; agonist mode): 1141 (33) %
16 | CC(C)c1ccc(CN2CCN(c3cccc(S(C)(=O)=O)c3)C[C@H]2c2ccccc2)cc1 [46-7, (R)-1-(4-isopropylbenzyl)-4-(3-(methylsulfonyl)phenyl)-2-phenylpiperazine] |  |  |  | > 50000 nM |  | > 3330 nM | > 20000 nM | > 20000 nM | > 50000 nM | > 2500 nM | 
17 | CS(=O)(=O)c1cccc(N2CCN(Cc3ccc(C(F)(F)F)nc3)[C@@H](c3ccccc3Cl)C2)c1 (single isomer, unassigned) [46-57] |  |  | 1244 (42) % | 499 nM | 41% | 188 nM | 1240 nM | 383 nM | 55 nM | 61 nM | Cell LXRβ efficacy [6]: 383 (38) %; FRET LXRβ efficacy (LXR β LBD protein [7]): 55 (56) %
18 | CS(=O)(=O)c1cc(N2CCN(C[C@H]3CC[C@@H](C(F)(F)F)CC3)[C@H](c3ccccc3)C2)ccc1C(N)=O (single isomer, unassigned) [17-38] |  |  | 4828 (13) % | 3370 nM | 34% | 3130 nM | 4830 nM |  |  | 753 nM | Cell LXRβ efficacy ([6]; agonist mode): 18%; EC50 ([6]; agonist mode, read-out: Cell LXRβ EC50): 1790 nM; FRET LXRβ efficacy (LXR β LBD protein [7]; agonist mode): 71%; EC50 (LXR β LBD protein [7]; agonist mode): 561 nM
19 | CS(=O)(=O)c1cccc(N2CCN(CC3CCCOC3)[C@@H](c3ccccc3)C2)c1 (stereo partly drawn) [51-4, (2S)-4-(3-(methylsulfonyl)phenyl)-2-phenyl-1-((tetrahydro-2H-pyran-3-yl)methyl)piperazine] |  |  |  |  |  | > 3330 nM | > 20000 nM | > 20000 nM | > 50000 nM | 546 nM | EC50 (LXR α LBD protein [3]; [11]): > 50000 nM
20 | COCCN(C)Cc1cnc(N2CCN(c3ccc(F)c(S(C)(=O)=O)c3)C[C@H]2C(C)C)nc1C(F)(F)F [15-10, (R)-N-((2-(4-(4-fluoro-3-(methylsulfonyl)phenyl)-2-isopropylpiperazin-1-yl)-4-(trifluoromethyl)pyrimidin-5-yl)methyl)-2-methoxy-N-methylethan-1-amine] | 5350 nM | 1620 nM | 5353 (16) % |  |  | 948 nM |  |  |  |  | 
